Reference: ChEMBL document CHEMBL5143515, “Identification of new halogen-containing 2,4-diphenyl indenopyridin-5-one derivative as a boosting agent for the anticancer responses of clinically available topoisomerase inhibitors” (Eur J Med Chem, 2022)
Activity calls are given as the source filed them. No cut-off for these calls is given here.

Experiments:
[1] = Genotoxicity in human HCT-15 cells assessed as production of Ub1-gamma-H2AX at 2 to 5 uM and measured in presence of 1 nM camptothecin by western blot analysis; assay type: toxicity, cell-based; conditions: hct-15, 5 µM, dose 2-5 µM
[2] = Toxicity in mouse assessed as reduction in number of red blood cells at 4 mg/kg administered in combination with 2 mg/kg etoposide; assay type: organism-based; conditions: in vivo
HCT-15 [3] = assay: Antitumor activity against human HCT-15 cells xenografted in female BALB/c nude mouse assessed as decrease in Ki67 expression at 4 mg/kg, ip administered every day for 6 days in combination with etoposide at 2 mg/kg, ip administered every day for 6 days measured by immunohistochemistry analysis; assay type: functional, organism-based; conditions: time 6.0 day
[4] = molecular target: DNA topoisomerase 2-alpha (Homo sapiens) (UniProt P11388); assay: Inhibition of recombinant human topoisomerase 2alpha assessed as relaxation of supercoiled plasmid pBR322 DNA at 100 uM by agarose gel electrophoresis (reference value: 82.2%)
[5] = Cytotoxicity against human MRC5 cells after 72 hrs by EZ-Cytox colorimetric assay; assay type: toxicity, cell-based
HCT-15 [6] = assay: Induction of apoptosis in human HCT-15 cells assessed as change in c-PARP level at 2 to 5 uM in presence of 0.2 uM etoposide and measured by Western blot analysis; assay type: functional, cell-based; conditions: dose 2-5 µM
[7] = Genotoxicity in human HCT-15 cells assessed as production of fragmented DNA tails at 2 to 5 uM and measured in presence of 0.2 uM etoposide by comet assay; assay type: toxicity, cell-based; conditions: hct-15, 5 µM, dose 2-5 µM
[8] = Genotoxicity in human HCT-15 cells assessed as production of Ub1-gamma-H2AX at 2 to 5 uM and measured in presence of 0.2 uM etoposide by western blot analysis; assay type: toxicity, cell-based; conditions: hct-15, 5 µM, dose 2-5 µM
[9] = Toxicity in mouse assessed as increase in mean corpuscular volume of RBC at 4 mg/kg; assay type: organism-based, Erythrocyte; conditions: in vivo
DU-145 = assay: Antiproliferative activity against human DU-145 cells after 72 hrs by EZ-Cytox colorimetric assay; assay type: functional, cell-based; conditions: DU-145, 72 h
[10] = molecular target: T1, DNA topoisomerase 1 (Homo sapiens) (UniProt P11387); assay: Catalytic inhibitor of non-intercalative topoisomerase 1 (unknown origin) assessed as binding to minor groove at 100 to 500 uM measured by cleavage complex assay; conditions: dose 100-500 µM
T1 sequence (whole entry): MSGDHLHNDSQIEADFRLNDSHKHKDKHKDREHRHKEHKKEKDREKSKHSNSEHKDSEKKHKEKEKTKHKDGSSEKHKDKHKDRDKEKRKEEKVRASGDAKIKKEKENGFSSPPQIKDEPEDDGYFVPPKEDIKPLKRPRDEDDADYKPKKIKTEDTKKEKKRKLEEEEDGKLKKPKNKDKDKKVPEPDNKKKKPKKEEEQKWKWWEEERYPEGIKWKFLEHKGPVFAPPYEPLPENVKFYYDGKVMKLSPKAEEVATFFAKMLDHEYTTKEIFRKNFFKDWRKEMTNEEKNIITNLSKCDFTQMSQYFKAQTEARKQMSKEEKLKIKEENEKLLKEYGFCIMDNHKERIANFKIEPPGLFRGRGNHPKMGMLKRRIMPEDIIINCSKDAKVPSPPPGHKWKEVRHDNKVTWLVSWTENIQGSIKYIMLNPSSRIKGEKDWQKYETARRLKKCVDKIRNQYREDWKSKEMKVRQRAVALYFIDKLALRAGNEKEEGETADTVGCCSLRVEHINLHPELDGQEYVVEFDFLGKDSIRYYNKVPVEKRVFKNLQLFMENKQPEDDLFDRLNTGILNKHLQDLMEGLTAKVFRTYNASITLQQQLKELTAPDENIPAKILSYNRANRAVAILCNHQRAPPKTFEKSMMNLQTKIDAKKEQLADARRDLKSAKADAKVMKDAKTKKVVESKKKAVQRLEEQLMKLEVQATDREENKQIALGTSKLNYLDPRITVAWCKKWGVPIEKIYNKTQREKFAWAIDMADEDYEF

[11] = Genotoxicity in human HCT-15 cells assessed as production of Ub1-gamma-H2AX at 2 to 5 uM and measured by western blot analysis; assay type: toxicity, cell-based; conditions: hct-15, 5 µM, dose 2-5 µM
[12] = Toxicity in mouse assessed as reduction in number of absolute neutrophil count at 4 mg/kg; assay type: organism-based; conditions: in vivo
[13] = molecular target: DNA topoisomerase 2-alpha (Homo sapiens) (UniProt P11388); assay: Catalytic inhibitor of non-intercalative topoisomerase 2alpha (unknown origin) assessed as binding to minor groove at 250 to 500 uM measured by cleavage complex assay; conditions: dose 250-500 µM
HCT-15 [14] = assay: Induction of apoptosis in human HCT-15 cells assessed as change in c-caspase 7 level at 2 to 5 uM in presence of 1 nM camptothecin and measured by Western blot analysis; assay type: functional, cell-based; conditions: dose 2-5 µM
HeLa = assay: Antiproliferative activity against human HeLa cells after 72 hrs by EZ-Cytox colorimetric assay; assay type: functional, cell-based
[15] = Genotoxicity in human HCT-15 cells assessed as production of fragmented DNA tails at 2 to 5 uM and measured by comet assay; assay type: toxicity, cell-based; conditions: hct-15, 5 µM, dose 2-5 µM
[16] = Genotoxicity in human HCT-15 cells assessed as production of fragmented DNA tails at 2 to 5 uM and measured in presence of 1 nM camptothecin by comet assay; assay type: toxicity, cell-based; conditions: hct-15, 5 µM, dose 2-5 µM
[17] = Cytotoxicity against mouse M2-10B4 cells after 72 hrs by EZ-Cytox colorimetric assay; assay type: toxicity, cell-based
[18] = Toxicity in mouse assessed as increase in d red cell distribution width at 4 mg/kg administered in combination with 2 mg/kg etoposide; assay type: organism-based; conditions: in vivo
[19] = Toxicity in mouse assessed as reduction in hemoglobin level at 4 mg/kg administered in combination with 2 mg/kg etoposide; assay type: organism-based; conditions: in vivo
[20] = molecular target: T1, DNA topoisomerase 1 (Homo sapiens); assay: Inhibition of recombinant human topoisomerase 1 assessed as relaxation of supercoiled plasmid pBR322 DNA at 20 uM by agarose gel electrophoresis (reference value: 40.4%)
[21] = Toxicity in mouse assessed as reduction in number of red blood cells at 4 mg/kg; assay type: organism-based; conditions: in vivo
HCT-15 [22] = assay: Induction of apoptosis in human HCT-15 cells assessed as change in c-PARP level at 2 to 5 uM in presence of 1 nM camptothecin and measured by Western blot analysis; assay type: functional, cell-based; conditions: dose 2-5 µM
[23] = molecular target: DNA topoisomerase 2-alpha (Homo sapiens) (UniProt P11388); assay: Inhibition of recombinant human topoisomerase 2alpha assessed as relaxation of supercoiled plasmid pBR322 DNA at 20 uM by agarose gel electrophoresis (reference value: 48.4%)
[24] = Genotoxicity in human HCT-15 cells assessed as production of gamma-H2AX at 2 to 5 uM and measured in presence of 1 nM camptothecin by western blot analysis; assay type: toxicity, cell-based; conditions: hct-15, 5 µM, dose 2-5 µM
Calf thymus DNA [25] = assay: Binding affinity to calf thymus DNA assessed as DNA intercalation at 5 to 40 uM by fluorescence based EtBr-displacement assay; assay type: nucleic-acid assay; conditions: Bos taurus; dose 5-40 µM
[26] = Genotoxicity in human HCT-15 cells assessed as production of gamma-H2AX at 2 to 5 uM and measured in presence of 0.2 uM etoposide by western blot analysis; assay type: toxicity, cell-based; conditions: hct-15, 5 µM, dose 2-5 µM
Calf thymus DNA [27] = assay: Binding affinity to calf thymus DNA assessed as DNA intercalation by measuring Stem-Volmer quenching constant at 0.01 to 0.1 uM by Hoechst displacement assay; assay type: nucleic-acid assay; conditions: Bos taurus; dose 0.01-0.1 µM

Sequence of DNA topoisomerase 2-alpha (Homo sapiens) (P11388 whole entry): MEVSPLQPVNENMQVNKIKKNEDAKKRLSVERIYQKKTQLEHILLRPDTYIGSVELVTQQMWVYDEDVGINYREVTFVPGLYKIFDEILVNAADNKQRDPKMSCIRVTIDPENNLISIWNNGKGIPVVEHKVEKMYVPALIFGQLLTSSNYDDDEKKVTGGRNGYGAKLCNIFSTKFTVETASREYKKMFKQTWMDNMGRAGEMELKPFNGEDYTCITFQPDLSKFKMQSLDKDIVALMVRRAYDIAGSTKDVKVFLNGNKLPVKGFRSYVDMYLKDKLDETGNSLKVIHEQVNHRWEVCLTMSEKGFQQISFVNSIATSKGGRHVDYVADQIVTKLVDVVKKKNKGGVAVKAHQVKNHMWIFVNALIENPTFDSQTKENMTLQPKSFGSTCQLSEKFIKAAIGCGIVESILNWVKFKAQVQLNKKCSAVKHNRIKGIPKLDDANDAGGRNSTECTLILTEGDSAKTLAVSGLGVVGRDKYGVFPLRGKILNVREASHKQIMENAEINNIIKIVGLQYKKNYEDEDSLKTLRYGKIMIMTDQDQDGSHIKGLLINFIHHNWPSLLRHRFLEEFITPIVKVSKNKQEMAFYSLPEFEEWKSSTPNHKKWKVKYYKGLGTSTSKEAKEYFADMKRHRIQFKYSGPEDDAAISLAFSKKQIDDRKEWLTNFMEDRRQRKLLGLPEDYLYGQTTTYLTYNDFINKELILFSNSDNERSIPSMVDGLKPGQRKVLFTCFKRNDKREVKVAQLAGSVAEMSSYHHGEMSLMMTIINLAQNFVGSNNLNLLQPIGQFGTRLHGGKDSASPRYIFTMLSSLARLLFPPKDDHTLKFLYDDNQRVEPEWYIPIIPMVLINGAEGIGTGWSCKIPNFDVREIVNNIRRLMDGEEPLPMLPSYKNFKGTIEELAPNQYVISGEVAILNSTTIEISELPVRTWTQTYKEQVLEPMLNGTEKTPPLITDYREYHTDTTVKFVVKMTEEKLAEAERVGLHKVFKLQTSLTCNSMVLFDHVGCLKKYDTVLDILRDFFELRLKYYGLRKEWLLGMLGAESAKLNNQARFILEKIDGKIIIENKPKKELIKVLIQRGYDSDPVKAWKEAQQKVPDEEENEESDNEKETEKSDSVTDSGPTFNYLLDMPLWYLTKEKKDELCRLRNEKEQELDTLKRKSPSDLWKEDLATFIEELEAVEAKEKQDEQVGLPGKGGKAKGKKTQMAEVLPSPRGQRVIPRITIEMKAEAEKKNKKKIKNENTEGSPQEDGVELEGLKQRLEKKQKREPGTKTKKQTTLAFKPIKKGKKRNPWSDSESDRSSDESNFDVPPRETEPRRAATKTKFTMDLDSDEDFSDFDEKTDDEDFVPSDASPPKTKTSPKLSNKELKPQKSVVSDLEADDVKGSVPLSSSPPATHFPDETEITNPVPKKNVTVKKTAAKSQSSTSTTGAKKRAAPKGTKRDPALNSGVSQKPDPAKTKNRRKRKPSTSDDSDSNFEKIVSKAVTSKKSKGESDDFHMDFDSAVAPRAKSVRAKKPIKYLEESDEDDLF

With `O=C1c2ccccc2-c2nc(-c3ccc(Br)cc3)cc(-c3ccccc3)c21` the Activity [1] was “Non-Toxic”, the Activity [2] was “Non-Toxic” and the Activity (HCT-15 [3]) was “Active”. The inhibition [4] was 85.8%, the IC50 at 72 h [5] was > 10 µM and the Activity (HCT-15 [6]) was “Active”. The Activity [7] was “Non-Toxic”, the Activity [8] was “Non-Toxic” and the Activity [9] was “Non-Toxic”. The IC50 (DU-145) was 4.84 µM, the inhibition [10] was “Active” and the Activity [11] was “Non-Toxic”. For the same molecule, the Activity [12] was “Non-Toxic”, the inhibition [13] was “Active” and the Activity (HCT-15 [14]) was “Active”. For the same molecule, the IC50 (HeLa) was > 50 µM, the Activity [15] was “Non-Toxic” and the Activity [16] was “Non-Toxic”. The IC50 at 72 h [17] was > 10 µM, the Activity [18] was “Non-Toxic” and the Activity [19] was “Non-Toxic”. The inhibition [20] was 1.8%, the Activity [21] was “Non-Toxic” and the Activity (HCT-15 [22]) was “Active”. For the same molecule, the inhibition [23] was 6.6%, the Activity [24] was “Non-Toxic” and the Activity (Calf thymus DNA [25]) was “Active”. For the same molecule, the Activity [26] was “Non-Toxic” and the KSV (Calf thymus DNA [27]) was 2.09 10^6/M.
